These results are taken from the METLIN SMRT retention time set (Domingo-Almenara et al. 2019).

The series can be described thus: gradient 5% acetonitrile 3 min, to 50% in 2 min, to 85% in 15 min, held 3 min, 100 µL/min. Particulars: column: Zorbax Extend-C18 2.1 x 50 mm; eluents: water / acetonitrile, 0.1% formic acid. A digest of the protocol:
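Retention time was recorded from adduct peaks, which were picked computationally and each inspected manually. Pure standards ran in mixtures of ~100 molecules on HPLC coupled to a quadrupole time-of-flight mass spectrometer, in positive and negative ionization mode, through a Zorbax Extend-C18 column (2.1 × 50 mm, 1.8 μm) at 100 μL/min. Eluents were water and acetonitrile, each with 0.1% formic acid.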
As for `CCc1ccc(NC(=O)Nc2cccn3nc(C)nc23)cc1`, the RP-LC retention time is 869 s.

`Cn1cnc(S(=O)(=O)N2CCC[C@H](n3c(=O)n(C)c4cccnc43)C2)c1` had an RP-LC retention time of 654 s.

In turn, `Cc1ccc(Cl)cc1N1CCN(C(=O)CN2C(=O)CN(C)C(=O)c3ccccc32)CC1` had an RP-LC retention time of 867 s.

Regarding `Cc1cc(=O)n(CC(=O)Nc2ccc(Cl)cc2)c(N2CCCC2)n1`, the RP-LC retention time was 672 s.

In turn, `CCCN(C)c1nccn2c(=O)n(CC(=O)Nc3ccc(C)cc3Br)nc12` displayed an RP-LC retention time of 743 s.

`CCC(C)NC(=O)CN1c2ccc(F)cc2-c2ccccc2S1(=O)=O` (stereo not given) displayed an RP-LC retention time of 870 s.

In turn, `CSc1cccc(NC(=O)C2CCCN(C(=O)c3cc(C)cc(C)c3)C2)c1` (stereo not given) displayed an RP-LC retention time of 1010 s.

`COc1cc(NC(=O)Cn2nc3c4cc(C)ccc4ncn3c2=O)cc(OC)c1` displayed an RP-LC retention time of 682 s.

The molecule `COc1ccc(SCC(=O)Nc2nnc(-c3ccno3)o2)cc1` displayed an RP-LC retention time of 672 s.

`CN1C(=O)C2CCCCN2c2ccc(C(=O)NCc3ccc4c(c3)OCO4)cc21` (stereo not given) showed an RP-LC retention time of 563 s.

Molecule `O=C(c1c(OCC2CC2)cc(=O)n2c1CCCCC2)N1CCc2ccccc2C1` came in with an RP-LC retention time of 837 s.

In turn, `O=C(Nc1ccc2c(c1)OCCO2)N1CCC2(CCCCO2)CC1` showed an RP-LC retention time of 712 s.

For `CN1c2ccccc2Oc2nnc(N3CCN(c4ccccn4)CC3)cc21`, the RP-LC retention time was found to be 550 s.

On to `CCN(CC)C(=O)c1cnc2nc(C)ccc2c1Nc1ccc(CC(=O)O)cc1`, for which the RP-LC retention time was determined as 1020 s.

For `Nc1nc2ccc(Cl)cc2c2nc(-c3ccco3)nn12`, the RP-LC retention time is 755 s.

In the case of `Cc1cc(NC(=O)NCCn2nnc3cc(C(=O)N4CCCC4)ccc32)ccc1Br`, the RP-LC retention time was found to be 740 s.

Regarding `CCN1C=C(C(=O)OCc2ccccc2C)C(C)=NS1(=O)=O`, the RP-LC retention time was found to be 1030 s.

`Cc1nn(-c2nc(-c3ccc(Cl)cc3)cs2)c(C)c1CC(=O)Nc1cccc(C(F)(F)F)c1` showed an RP-LC retention time of 1380 s.

`CC1CCCN(c2ccc(NC(=O)Cc3cccs3)c(C(=O)O)c2)C1` (stereo not given) showed an RP-LC retention time of 685 s.

In turn, `O=C(CCc1c(-c2ccc(F)cc2)nc2ccccn12)Nc1cccc(F)c1` displayed an RP-LC retention time of 676 s.

As to `CCn1c(=O)c(N2CCC(NC(=O)NCCc3ccccc3)CC2)nc2cccnc21`, the RP-LC retention time came out at 824 s.

On to `C=CCn1c(=O)c2ccccc2n(Cc2nc(-c3ccccc3OCC)no2)c1=O`, for which the RP-LC retention time was 1000 s.

`Cc1cc(N2CCN(C(=O)c3ccc4c(c3)OCO4)CC2)nc2nnc(C)n12` had an RP-LC retention time of 595 s.

In turn, `CC(C)CN1C(=O)c2cccn2CC1CNC(=O)C1(c2ccccc2)CC1` (stereo not given) showed an RP-LC retention time of 832 s.

As to `O=C(NCc1cscn1)C1CCN(S(=O)(=O)c2cccc(C(F)(F)F)c2)CC1`, the RP-LC retention time came out at 787 s.

`COc1cccc(-n2c(N3CCCC(C(=O)NCc4ccc(C)o4)C3)nc3ccsc3c2=O)c1` (stereo not given) displayed an RP-LC retention time of 849 s.

As for `Cn1nc2c(c1NC(=O)c1ccc(Cl)s1)CCC2`, the RP-LC retention time is 724 s.

As to `CCn1nnc(NCc2ccc(-c3cc(Cl)ccc3Cl)o2)n1`, the RP-LC retention time was found to be 1110 s.

Regarding `CCn1cc(-c2ccc(F)cc2)cc1C(=O)N1CCC2(CC1)OCCO2`, the RP-LC retention time was determined as 963 s.

As for `Cn1nc(CNC(=O)c2n[nH]c(=O)c3ccccc23)c2c1CCN(S(C)(=O)=O)C2`, the RP-LC retention time is 609 s.

The molecule `CCc1nc2nccc(-c3cccc(OC)c3)n2n1` showed an RP-LC retention time of 762 s.

On to `Nc1ncnc2c1ncn2C=C=CCO`, for which the RP-LC retention time came to 581 s.

In turn, `Cc1ccc(S(=O)(=O)N(C)C)cc1-c1nnc(-c2ccccc2Cl)o1` gave an RP-LC retention time of 1010 s.

`Fc1ccc(-c2csc(Nc3ccc(Br)cn3)n2)cc1`: the RP-LC retention time was found to be 1230 s.

For `O=C(Nc1cnn(-c2ncncc2N2CCOCC2)c1)c1ccc(C(F)(F)F)cc1`, the RP-LC retention time is 714 s.

`COc1ccc(CSc2nccc3c2ccn3CC(=O)NCc2ccc(OC)c(OC)c2)cc1` came in with an RP-LC retention time of 681 s.

`COC(=O)c1c(C)[nH]c(C(=O)N2CCCC(C(=O)NCc3cccc(Br)c3)C2)c1C` (stereo not given) had an RP-LC retention time of 813 s.

With `CCOc1ccc(NC(=O)N(C)CCc2noc(COc3ccccc3)n2)cc1`, the RP-LC retention time was 890 s.

As for `Cc1ccc(N2CCN(Cc3nc(-c4ccc(N5CCCC5)nc4)no3)CC2)cc1`, the RP-LC retention time worked out at 678 s.

`Cc1nc(-c2noc(-c3cccc(F)c3)n2)cn1CC(=O)Nc1ccc(F)cc1` registered an RP-LC retention time of 874 s.

`Cc1ccc(CN2CC(n3c(C)cnc3-c3ccccc3)C2)s1` came in with an RP-LC retention time of 555 s.

`COCCCNC(=O)C1(CCO)CCN(Cc2ccccc2)C1` (stereo not given) yielded an RP-LC retention time of 560 s.

On to `CCOC(=O)C1CCN(c2ncc(S(=O)(=O)c3ccc(CC)cc3)c(N)n2)CC1`, for which the RP-LC retention time was determined as 1030 s.

In the case of `Cc1cc(C2CCCN2C(=O)Cc2ccc(F)cc2Cl)no1` (stereo not given), the RP-LC retention time turned out to be 851 s.

`O=C(NCC1CCCO1)C1CCCN(c2ccc(Sc3ccc(Br)cc3)nn2)C1` (stereo not given) gave an RP-LC retention time of 793 s.

`Cc1ccc(-c2nnc(-c3nc(N4CCCCCC4)c4ccccc4n3)o2)cc1` came in with an RP-LC retention time of 750 s.

`Cc1nc(-c2ccncc2)cc2nn(CC(=O)Nc3ccc(F)c(Cl)c3)c(=O)n12` displayed an RP-LC retention time of 679 s.

The molecule `CCOC(=O)C1=C(C)NC2=C(C(=O)CCC2)C1c1ccc(OC)c(OC)c1OC` (stereo not given) yielded an RP-LC retention time of 727 s.

As to `O=C(NCCC1CCN(S(=O)(=O)c2ccccc2)CC1)Nc1ccc(F)cc1`, the RP-LC retention time was determined as 883 s.

In turn, `COc1ccc2c(C)cc(SCC(=O)Nc3c(C)cccc3C)nc2c1` yielded an RP-LC retention time of 995 s.

For the molecule `COCCN1C(=O)c2ccccc2C(C(=O)NCCC(C)C)C1c1cccs1` (stereo not given), the RP-LC retention time came to 874 s.

For `Cc1noc(C2CN(C(=O)Nc3ccc(F)cc3F)CC23CCOCC3)n1` (stereo not given), the RP-LC retention time was found to be 695 s.

Consider `Cc1oc2ncnc(N3CCOCC3)c2c1C(=O)N1CCCc2ccccc21`, for which the RP-LC retention time came out at 790 s.

Turning to `CCCC(=O)Nc1nc(-c2ccccc2)c(C(=O)OCC)s1`, the RP-LC retention time is 973 s.

`O=C(c1ccc(-n2cnnn2)cc1)N1CCCc2ccccc21` had an RP-LC retention time of 734 s.

`CC(C)CCNC(=O)c1ccc(Cn2c(C(F)(F)F)nc3cccnc32)cc1` gave an RP-LC retention time of 905 s.

In turn, `CN(C)C(=O)C1c2ccccc2CC(=O)N1Cc1ccccc1` (stereo not given) yielded an RP-LC retention time of 728 s.

For the molecule `Cc1ccc(NC(=O)N2CCC(OC3CCN(S(C)(=O)=O)CC3)CC2)c(C)c1`, the RP-LC retention time was 743 s.

For the molecule `COc1ccc(C(=O)NCc2c(C)noc2C)cn1`, the RP-LC retention time turned out to be 633 s.

In turn, `CN(Cc1ccco1)C(=O)c1ccc(-n2cc(CNC(=O)C3CCC3)cn2)cc1` yielded an RP-LC retention time of 672 s.

Molecule `O=C(NCCc1ccccc1)N1CCC(c2noc(-c3ccccn3)n2)C1` (stereo not given) displayed an RP-LC retention time of 742 s.

In turn, `Cc1ccc(C2(O)C(=O)N(CC(=O)Nc3ccc(F)cc3F)c3ccccc32)cc1` (stereo not given) had an RP-LC retention time of 715 s.

As for `CCOC(=O)c1c(C)oc2ncnc(NCCN3CCCc4ccccc43)c12`, the RP-LC retention time is 1350 s.

`CC(C)Cn1ccc2c(cc(C(=O)Nc3ccc(Br)cc3)n2C)c1=O` registered an RP-LC retention time of 979 s.

As for `CC(=O)c1cccc(NC(=O)Cc2ccc3ccccc3c2)c1`, the RP-LC retention time came out at 858 s.

`COc1ccc(C(=O)NC2CCN(c3cc(-c4ccc(Cl)cc4)[nH]n3)C2)cc1` (stereo not given) gave an RP-LC retention time of 776 s.

In turn, `Cc1ccc(-c2nnc(C3CN(C(=O)C4(c5ccccc5)CC4)CC34CCOCC4)o2)cc1` (stereo not given) yielded an RP-LC retention time of 830 s.

As for `O=C(Cn1ccnc1-c1ccnc(N2CCOCC2)c1)Nc1cccc(Br)c1`, the RP-LC retention time is 648 s.

Molecule `O=[N+]([O-])c1ccc(-c2nc(NC3CCCCC3)c3ccccc3n2)cc1` returned an RP-LC retention time of 921 s.

As for `CCCn1cc(-c2ccncc2)cc1C(=O)Nc1ccc(OC)c(OC)c1`, the RP-LC retention time stood at 654 s.

Molecule `CN1CCN(c2ccc(NC(=O)c3ccc(Br)cc3)c(C(=O)O)c2)CC1` registered an RP-LC retention time of 653 s.

Turning to `CCC(Sc1nnc2c3ccccc3n(C(C)C)c2n1)C(=O)Nc1nc(-c2ccccc2)cs1` (stereo not given), the RP-LC retention time turned out to be 1310 s.

`COc1ccc(CC(=O)NC2CCN(c3cc(-c4ccc(F)cc4)[nH]n3)C2)cc1OC` (stereo not given) showed an RP-LC retention time of 670 s.

In turn, `CCOC(=O)c1ccc(NC(=O)c2sccc2S(=O)(=O)N(C)c2ccc(OCC)cc2)cc1` showed an RP-LC retention time of 1230 s.

`Cc1nc(N2CCN(c3ccccn3)CC2)c2c3c(sc2n1)CCC3` had an RP-LC retention time of 569 s.

As for `CC(C)CCNC(=O)C1CCCN(C(=O)Nc2ccc(NC(=O)NC3CCCC3)cc2)C1` (stereo not given), the RP-LC retention time was 762 s.

The molecule `O=S(=O)(NCCCCN1CCOC(c2ccccc2)C1)c1ccc(F)cc1F` (stereo not given) came in with an RP-LC retention time of 584 s.

Molecule `CC(C)CNC(=O)N1CCCC(c2nc(C(C)C)no2)CCNC(=O)CC1` (stereo not given) showed an RP-LC retention time of 679 s.

Molecule `COc1ccc(NC(=O)NCCn2c(-c3ccncc3)nc3cccnc32)cc1` had an RP-LC retention time of 608 s.

Consider `Cc1ccc(NC(=O)CCc2ccc3nc[nH]c3c2)cc1Cl`, for which the RP-LC retention time amounted to 646 s.
